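Briefly, cells in 96-well plates were exposed to five compound concentrations for 48 h, and endpoints were estimated by linear interpolation. GI50 = concentration required for 50% inhibition of growth. Definition used: TGI = concentration required for complete inhibition of growth.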
Columns and labels:
Experiment in all cases: NCI tumour cell line growth inhibition, 48 h
[1] = test system: HS 578T breast
[2] = test system: XF 498 CNS
[3] = test system: MDA-MB-435
[4] = test system: SK-MEL-2 melanoma
[5] = test system: SN12K1 renal
[6] = test system: COLO 205 colon
[7] = test system: OVCAR-4 ovarian
[8] = test system: U251 CNS
[9] = test system: SR leukemia
[10] = test system: HOP-92 NSCLC
[11] = test system: SK-MEL-5 melanoma
[12] = test system: SF-539 CNS
[13] = test system: IGROV1 ovarian
[14] = test system: ACHN renal
[15] = test system: K-562 leukemia
[16] = test system: OVCAR-5 ovarian
[17] = test system: MDA-MB-231 breast
[18] = test system: M14 melanoma
[19] = test system: CAKI-1 renal
[20] = test system: P388/ADR leukemia
[21] = test system: NCI-H23 lung
[22] = test system: RXF 393 renal
[23] = test system: A498 renal
[24] = test system: HT29 colon
[25] = test system: HCC-2998 colon
[26] = test system: SF-268 CNS
[27] = test system: DMS 114 small cell lung
[28] = test system: MCF7 breast
[29] = test system: HL-60(TB) leukemia
[30] = test system: BT-549 breast
[31] = test system: MALME-3M melanoma
[32] = test system: DU-145 prostate
[33] = test system: HOP-18 NSCLC
[34] = test system: OVCAR-8 ovarian
[35] = test system: HCT-15 colon
[36] = test system: KM20L2 colon
[37] = test system: UO-31 renal
[38] = test system: SK-MEL-28 melanoma
[39] = test system: SNB-19 CNS
[40] = test system: LOX IMVI melanoma
[41] = test system: UACC-62 melanoma
[42] = test system: EKVX NSCLC
[43] = test system: KM12 colon
[44] = test system: SW-620 colon
[45] = test system: MOLT-4 leukemia
[46] = test system: NCI-H522 lung
[47] = test system: SNB-78 CNS
[48] = test system: DLD-1 colon
[49] = test system: A549 NSCLC
[50] = test system: DMS 273 small cell lung
[51] = test system: NCI-H460 lung
[52] = test system: OVCAR-3 ovarian
[53] = test system: 786-0 renal
[54] = test system: UACC-257 melanoma
[55] = test system: SF-295 CNS
[56] = test system: NCI-H226 lung
[57] = test system: PC-3 prostate
[58] = test system: P388 leukemia
[59] = test system: NCI/ADR-RES ovarian
[60] = test system: SNB-75 CNS
[61] = test system: RPMI-8226 leukemia
[62] = test system: HOP-62 NSCLC
[63] = test system: SK-OV-3 ovarian
[64] = test system: HCT-116 colon
[65] = test system: TK-10 renal
[66] = test system: SN12C renal
[67] = test system: CCRF-CEM leukemia
[68] = test system: M19-MEL melanoma

Q: What does the source list for COc1ccc2[nH]c3c(C)c4ccncc4c(C)c3c2c1?
A: GI50 [1]: 1.13 µM; TGI [1]: 3.55 µM; TGI [2]: 6.66 µM; GI50 [3]: 0.208 µM; TGI [3]: 1.67 µM; TGI [4]: 5.36 µM; TGI [5]: 1.31 µM; TGI [6]: 1.6 µM; TGI [7]: 1.58 µM; TGI [8]: 4.19 µM; TGI [9]: 6.83 µM; TGI [10]: 0.935 µM; TGI [11]: 2.86 µM; TGI [12]: 1.45 µM; TGI [13]: 2.41 µM; GI50 [14]: 0.0194 µM; TGI [14]: 1.51 µM; TGI [15]: 1.43 µM; TGI [16]: 4.07 µM; GI50 [17]: 0.307 µM; TGI [17]: 1.87 µM; GI50 [18]: 0.29 µM; TGI [18]: 1.63 µM; TGI [19]: 5.49 µM; TGI [20]: 3.47 µM; TGI [21]: 2.1 µM; TGI [22]: 0.477 µM; TGI [23]: 2.1 µM; TGI [24]: 2.4 µM; TGI [25]: 5.57 µM; TGI [26]: 4.65 µM; TGI [27]: 4.49 µM; TGI [28]: 2.2 µM; TGI [29]: 2.42 µM; GI50 [30]: 0.757 µM; TGI [30]: 2.11 µM; TGI [31]: 5.73 µM; GI50 [32]: 0.13 µM; TGI [32]: 1.59 µM; TGI [33]: 6.44 µM; TGI [34]: 1.92 µM; TGI [35]: 2.3 µM; TGI [36]: 7.32 µM; TGI [37]: 4.25 µM; TGI [38]: 9.06 µM; TGI [39]: 7.83 µM; TGI [40]: 4.29 µM; TGI [41]: 2.54 µM; TGI [42]: 2.71 µM; TGI [43]: 1.68 µM; TGI [44]: 1.56 µM; TGI [45]: 0.802 µM; TGI [46]: 2.47 µM; TGI [47]: 11.7 µM; TGI [48]: 1.33 µM; TGI [49]: 2.15 µM; TGI [50]: 1.95 µM; TGI [51]: 0.892 µM; TGI [52]: 2.46 µM; GI50 [53]: 0.0436 µM; TGI [53]: 1.49 µM; TGI [54]: 8.12 µM; TGI [55]: 1.26 µM; TGI [56]: 3.89 µM; GI50 [57]: 0.0843 µM; TGI [57]: 2.02 µM; TGI [58]: 1.87 µM; TGI [59]: 1.96 µM; TGI [60]: 2.77 µM; TGI [61]: 2.73 µM; TGI [62]: 3.09 µM; TGI [63]: 5.16 µM; TGI [64]: 1.5 µM; GI50 [65]: 1.12 µM; TGI [65]: 4.37 µM; TGI [66]: 2.54 µM; TGI [67]: 4.7 µM

Q: O=C1C(=O)c2cc([N+](=O)[O-])ccc2-c2ccc([N+](=O)[O-])cc21 was tested. Which TGI [2] did it give?
A: 2.64 µM

Q: What about the TGI [4] of the same compound?
A: 4.16 µM

Q: And the TGI [5]?
A: 0.964 µM

Q: What about the TGI [6] of the same compound?
A: 7.75 µM

Q: What about the TGI [7] of the same compound?
A: 0.951 µM

Q: What about the TGI [8] of the same compound?
A: 2.36 µM

Q: What about the TGI [10] of the same compound?
A: 1.64 µM

Q: What about the TGI [11] of the same compound?
A: 3.67 µM

Q: And the TGI [12]?
A: 1.83 µM

Q: What about the TGI [13] of the same compound?
A: 2.29 µM

Q: And the TGI [15]?
A: 2.01 µM

Q: And the TGI [16]?
A: 6.4 µM

Q: What about the TGI [19] of the same compound?
A: 2.14 µM

Q: What about the TGI [20] of the same compound?
A: 2.54 µM

Q: What about the TGI [21] of the same compound?
A: 2.77 µM

Q: And the TGI [22]?
A: 0.892 µM

Q: What about the TGI [23] of the same compound?
A: 3.79 µM

Q: What about the TGI [24] of the same compound?
A: 22.7 µM

Q: What about the TGI [25] of the same compound?
A: 5.41 µM

Q: And the TGI [26]?
A: 1.93 µM

Q: And the TGI [27]?
A: 0.908 µM

Q: And the TGI [28]?
A: 2.61 µM

Q: And the TGI [29]?
A: 2.06 µM

Q: And the TGI [31]?
A: 3.84 µM

Q: And the TGI [33]?
A: 8.89 µM

Q: And the TGI [34]?
A: 1.27 µM

Q: What about the TGI [35] of the same compound?
A: 3.02 µM

Q: And the TGI [36]?
A: 21.7 µM

Q: What about the TGI [37] of the same compound?
A: 4.44 µM

Q: And the TGI [38]?
A: 4.21 µM

Q: And the TGI [39]?
A: 4.65 µM

Q: What about the TGI [40] of the same compound?
A: 3.82 µM

Q: And the TGI [41]?
A: 1.54 µM

Q: And the TGI [42]?
A: 3.94 µM

Q: What about the TGI [43] of the same compound?
A: 2.66 µM

Q: What about the TGI [44] of the same compound?
A: 1.56 µM

Q: And the TGI [45]?
A: 1.15 µM

Q: What about the TGI [46] of the same compound?
A: 3 µM

Q: What about the TGI [47] of the same compound?
A: 2.66 µM

Q: What about the TGI [48] of the same compound?
A: 3.95 µM

Q: What about the TGI [49] of the same compound?
A: 5.97 µM

Q: What about the TGI [50] of the same compound?
A: 1.83 µM

Q: What about the TGI [51] of the same compound?
A: 2.65 µM

Q: And the TGI [52]?
A: 0.662 µM

Q: And the TGI [54]?
A: 3.19 µM

Q: What about the TGI [55] of the same compound?
A: 3.53 µM

Q: And the TGI [56]?
A: 4.09 µM

Q: What about the TGI [58] of the same compound?
A: 0.52 µM

Q: And the TGI [59]?
A: 1.03 µM

Q: What about the TGI [60] of the same compound?
A: 5.2 µM

Q: And the TGI [61]?
A: 1.35 µM

Q: What about the TGI [62] of the same compound?
A: 5.87 µM

Q: And the TGI [63]?
A: 5.31 µM

Q: What about the TGI [64] of the same compound?
A: 0.885 µM

Q: And the TGI [66]?
A: 2.29 µM

Q: And the TGI [68]?
A: 0.789 µM

Q: What about the TGI [67] of the same compound?
A: 1.67 µM

Q: What does the source list for Cc1cc(C(=O)NCCN(C)C)c2nc3ccccc3cc2c1?
A: TGI [2]: 3.69 µM; TGI [4]: 7.26 µM; TGI [5]: 2.6 µM; TGI [6]: 3.54 µM; TGI [7]: 10.6 µM; TGI [8]: 10.7 µM; TGI [10]: 5.27 µM; TGI [11]: 3.6 µM; TGI [12]: 12.7 µM; TGI [13]: 12.6 µM; TGI [15]: > 31.3 µM; TGI [16]: 8.56 µM; TGI [19]: 1.29 µM; TGI [20]: 2.18 µM; TGI [21]: 5.93 µM; TGI [22]: 4.32 µM; TGI [23]: 6.37 µM; TGI [24]: 5.7 µM; TGI [25]: 17.7 µM; TGI [26]: 10.2 µM; TGI [27]: 4.12 µM; TGI [28]: 8 µM; TGI [29]: 3.95 µM; TGI [31]: 4.28 µM; TGI [33]: 7.16 µM; TGI [34]: 4.28 µM; TGI [35]: 11.4 µM; TGI [36]: 4.31 µM; TGI [37]: 3.93 µM; TGI [38]: 10.7 µM; TGI [39]: 6.89 µM; TGI [40]: 3.5 µM; TGI [41]: 5.05 µM; TGI [42]: 0.971 µM; TGI [43]: 14.1 µM; TGI [44]: 8.88 µM; TGI [45]: > 21.8 µM; TGI [47]: 14.5 µM; TGI [48]: 10.9 µM; TGI [49]: 6.81 µM; TGI [50]: 10.8 µM; TGI [51]: 2.36 µM; TGI [52]: 8.98 µM; TGI [54]: 5.02 µM; TGI [55]: 3.91 µM; TGI [56]: 3.33 µM; TGI [58]: 1.68 µM; TGI [59]: 4.62 µM; TGI [60]: 11.8 µM; TGI [61]: 5.71 µM; TGI [62]: 6.38 µM; TGI [63]: 8.97 µM; TGI [64]: 10.1 µM; TGI [66]: 7.26 µM; TGI [68]: 4.42 µM; TGI [67]: 9.57 µM

Source: PubChem BioAssay (NCI)
